Measurements: BindingDB's records for patent US10266550 (The Florida International University Board of Trustees, 2019)

Molecular target: DNA topoisomerase 2-alpha (Homo sapiens, UniProt P11388)
Assay: Human Topoisomerase IIalpha Decatenation Inhibition Assay
Protocol: The samples were incubated for 15 minutes at 37° C. before the addition of 4 μL of a stop buffer containing 5% sarkosyl, 0.25% bromophenol blue, and 25% glycerol. The reactions were then analyzed by electrophoresis in 1% agarose gels containing […] ethidium bromide before being photographed under UV light.

Chain of DNA topoisomerase 2-alpha (P11388 whole entry): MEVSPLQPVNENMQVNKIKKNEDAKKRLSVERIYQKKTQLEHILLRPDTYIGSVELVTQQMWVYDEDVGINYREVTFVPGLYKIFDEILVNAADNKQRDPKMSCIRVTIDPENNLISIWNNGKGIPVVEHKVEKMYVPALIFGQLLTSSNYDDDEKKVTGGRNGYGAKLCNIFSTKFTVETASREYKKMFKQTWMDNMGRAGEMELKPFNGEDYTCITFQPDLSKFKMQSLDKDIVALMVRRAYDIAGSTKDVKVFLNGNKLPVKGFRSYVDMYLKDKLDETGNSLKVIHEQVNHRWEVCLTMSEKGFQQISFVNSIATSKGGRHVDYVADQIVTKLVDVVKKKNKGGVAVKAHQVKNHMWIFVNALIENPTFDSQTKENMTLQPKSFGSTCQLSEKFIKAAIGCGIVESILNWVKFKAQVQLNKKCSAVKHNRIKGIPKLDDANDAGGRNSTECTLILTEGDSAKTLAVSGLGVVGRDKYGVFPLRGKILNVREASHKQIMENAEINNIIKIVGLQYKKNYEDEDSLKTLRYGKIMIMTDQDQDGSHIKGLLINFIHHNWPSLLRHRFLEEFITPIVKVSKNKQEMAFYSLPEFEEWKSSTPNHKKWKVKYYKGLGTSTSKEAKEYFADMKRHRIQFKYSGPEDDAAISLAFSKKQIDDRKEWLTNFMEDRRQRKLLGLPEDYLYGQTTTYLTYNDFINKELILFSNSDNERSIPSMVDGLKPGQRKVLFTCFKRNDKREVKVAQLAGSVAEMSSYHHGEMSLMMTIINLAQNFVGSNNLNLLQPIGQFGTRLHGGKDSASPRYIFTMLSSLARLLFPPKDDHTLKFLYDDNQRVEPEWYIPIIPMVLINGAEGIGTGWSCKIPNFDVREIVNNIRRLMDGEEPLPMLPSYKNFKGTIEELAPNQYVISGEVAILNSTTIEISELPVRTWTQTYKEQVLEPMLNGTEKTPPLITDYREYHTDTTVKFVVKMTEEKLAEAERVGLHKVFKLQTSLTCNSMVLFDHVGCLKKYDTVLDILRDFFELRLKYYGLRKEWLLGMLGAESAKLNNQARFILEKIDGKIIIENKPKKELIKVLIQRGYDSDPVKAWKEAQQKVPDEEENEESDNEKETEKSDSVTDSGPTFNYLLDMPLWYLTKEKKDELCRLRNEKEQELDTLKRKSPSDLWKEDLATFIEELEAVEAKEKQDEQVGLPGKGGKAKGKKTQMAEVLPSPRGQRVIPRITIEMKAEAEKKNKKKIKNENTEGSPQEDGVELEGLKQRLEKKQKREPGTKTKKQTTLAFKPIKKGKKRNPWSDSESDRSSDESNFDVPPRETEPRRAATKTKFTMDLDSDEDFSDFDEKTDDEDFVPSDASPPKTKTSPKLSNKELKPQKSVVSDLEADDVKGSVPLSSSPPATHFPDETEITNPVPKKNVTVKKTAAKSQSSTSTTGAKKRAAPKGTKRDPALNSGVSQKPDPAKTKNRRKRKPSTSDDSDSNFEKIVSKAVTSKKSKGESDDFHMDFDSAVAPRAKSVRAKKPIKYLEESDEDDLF

IC50	Structure (SMILES)
2920 nM	Nc1ccc2c(c1)Oc1c(N3CCNCC3)c(F)cc3c(=O)c(C(=O)O)cn-2c13 [US10266550, Compound 11b]
5850 nM	CN1CCN(c2c(F)cc3c(=O)c(C(=O)O)cn4c3c2Oc2cc(N)ccc2-4)CC1 [US10266550, Compound 11a]
2920 nM	N[C@H]1CCN(c2c(F)cc3c(=O)c(C(=O)O)cn4c3c2Oc2cc([N+](=O)[O-])ccc2-4)C1 [US10266550, Compound 16]
